Counter-ions that a name gives are not always drawn.
System: Escherichia coli ATCC 25922
Assay: 50% growth inhibitory concentration (IC50) determination, Iso-Sensitest broth dilution
Assay type: cell-based
Details: Escherichia coli, ATCC25922, 16 h, strain Escherichia coli ATCC 25922; 10-point broth dilution, optical density at 600 nm over 16 h; read-out: Escherichia coli growth inhibition IC50
Outline: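 10-point twofold Iso-Sensitest broth dilution (e.g. 50 to 0.097 μM final) with DMSO stocks, incubated at 35±2° C. Growth followed by OD 600 nm every 20 min over 16 h; IC50 derived from growth inhibition during logarithmic phase.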

IC50 [nM]	Compound
727	Nc1nnnn1CCOc1cc(F)c2c(c1)CC(CNCCC1CN(c3cnc4c(n3)NC(=O)CO4)C(=O)O1)C2 (stereo not shown) [Example 294, 6-[5-[2-[[6-[2-(5-aminotetrazol-1-yl)ethoxy]-4-fluoro-2,3-dihydro-1H-inden-2-yl]methylamino]ethyl]-2-oxo-1,3-oxazolidin-3-yl]-4H-pyrazino[2,3-b][1,4]oxazin-3-one; formic acid]
225	Cc1ncc(F)c2c1CC(CNCCc1nn(-c3cnc4c(n3)NC(=O)CO4)c(=O)o1)C2 (stereo not shown) [Example 335, 6-[5-[2-[(4-fluoro-1-methyl-6,7-dihydro-5H-cyclopenta[c]pyridin-6-yl)methylamino]ethyl]-2-oxo-1,3,4-oxadiazol-3-yl]-4H-pyrazino[2,3-b][1,4]oxazin-3-one]
< 97.7	Cc1noc(COc2cc(C#N)c3c(c2)CC(CNCCC2CN(c4cnc5c(n4)NC(=O)CO5)C(=O)O2)C3)n1 (stereo not shown) [Example 387, 6-[(3-methyl-1,2,4-oxadiazol-5-yl)methoxy]-2-[[2-[2-oxo-3-(3-oxo-4H-pyrazino[2,3-b][1,4]oxazin-6-yl)-1,3-oxazolidin-5-yl]ethylamino]methyl]-2,3-dihydro-1H-indene-4-carbonitrile]
134	O=C1COc2ccc(N3CC(CCNCC4Cc5ccnc(Cl)c5C4)OC3=O)nc2N1 (stereo not shown) [Example 86, 6-[5-[2-[(1-chloro-6,7-dihydro-5H-cyclopenta[c]pyridin-6-yl)methylamino]ethyl]-2-oxo-1,3-oxazolidin-3-yl]-4H-pyrido[3,2-b][1,4]oxazin-3-one]
381	O=C1COc2ncc(N3CC(CCNCC4Cc5cc(OCCn6cncn6)cc(F)c5C4)OC3=O)nc2N1 (stereo not shown) [Example 296, 6-[5-[2-[[4-fluoro-6-[2-(l,2,4-triazol-1-yl)ethoxy]-2,3-dihydro-1H-inden-2-yl]methylamino]ethyl]-2-oxo-1,3-oxazolidin-3-yl]-4H-pyrazino[2,3-b][1,4]oxazin-3-one; formic acid]
< 97.7	Cc1cc(OCC2(N)CC2)c(C)c2c1CC(CNCCC1CN(c3cnc4c(n3)NC(=O)CO4)C(=O)O1)C2 (stereo not shown) [Example 253, 6-[5-[2-[[5-[(1-Aminocyclopropyl)methoxy]-4,7-dimethyl-2,3-dihydro-1H-inden-2-yl]methylamino]ethyl]-2-oxo-1,3-oxazolidin-3-yl]-4H-pyrazino[2,3-b][1,4]oxazin-3-one; formic acid]
187	N#Cc1cccc2c1CC(CN[C@H]1C[C@@H](C3CN(c4ccc5c(n4)NC(=O)CO5)C(=O)O3)C1)C2 (stereo partly drawn) [Example 96, 2-[[[cis-3-[2-oxo-3-(3-oxo-4H-pyrido[3,2-b][1,4]oxazin-6-yl)-1,3-oxazolidin-5-yl]cyclobutyl]amino]methyl]-2,3-dihydro-1H-indene-4-carbonitrile; formic acid]
< 97.7	CNC(=O)COc1ccc2c(c1F)CC(CN1CCC3(CC1)CN(c1cnc4c(n1)NC(=O)CO4)C(=O)O3)C2 (stereo not shown) [Example 336, 2-[[4-fluoro-2-[[2-oxo-3-(3-oxo-4H-pyrazino[2,3-b][1,4]oxazin-6-yl)-1-oxa-3,8-diazaspiro[4.5]decan-8-yl]methyl]-2,3-dihydro-1H-inden-5-yl]oxy]-N-methylacetamide]
< 97.7	Cc1cnc(C)c2c1CC(CNCCC1CN(c3cnc4c(n3)NC(=O)CO4)C(=O)O1)C2 (stereo not shown) [Example 268, 6-[5-[2-[(1,4-Dimethyl-6,7-dihydro-5H-cyclopenta[c]pyridin-6-yl)methylamino]ethyl]-2-oxo-1,3-oxazolidin-3-yl]-4H-pyrazino[2,3-b][1,4]oxazin-3-one]
161	O=C1COc2ncc(N3CC4(CCN(CC5Cc6c(F)cc(OCc7cc[nH]n7)c(F)c6C5)CC4)OC3=O)nc2N1 (stereo not shown) [Example 396, 6-[8-[[4,7-difluoro-5-(1H-pyrazol-3-ylmethoxy)-2,3-dihydro-1H-inden-2-yl]methyl]-2-oxo-1-oxa-3,8-diazaspiro[4.5]decan-3-yl]-4H-pyrazino[2,3-b][1,4]oxazin-3-one]
< 97.7	N#Cc1c(OCC2(N)CC2)ncc2c1CC(CNCCC1CN(c3ccc4c(n3)NC(=O)CO4)C(=O)O1)C2 (stereo not shown) [Example 198, 3-[(1-aminocycopropyl)methoxy]-6-[[2-[2-oxo-3-(3-oxo-4H-pyrido[3,2-b][1,4]oxazin-6-yl)-1,3-oxazolidin-5-yl]ethylamino]methyl]-6,7-dihydro-5H-cyclopenta[c]pyridine-4-carbonitrile]
144	CC(O)COc1cc(F)c2c(c1)CC(CNCCC1CN(c3cnc4c(n3)NC(=O)CO4)C(=O)O1)C2 (stereo not shown) [Example 351, 6-[5-[2-[[4-Fluoro-6-(2-hydroxypropoxy)-2,3-dihydro-1H-inden-2-yl]methylamino]ethyl]-2-oxo-1,3-oxazolidin-3-yl]-4H-pyrazino[2,3-b][1,4]oxazin-3-one; hydrochloride]
< 97.7	O=C1COc2ncc(N3CC(CCNCC4Cc5cccc(Cl)c5C4)OC3=O)nc2N1 (stereo not shown) [Example 281, 6-[5-[2-[(4-Chloro-2,3-dihydro-1H-inden-2-yl)methylamino]ethyl]-2-oxo-1,3-oxazolidin-3-yl]-4H-pyrazino[2,3-b][1,4]oxazin-3-one]
495	O=C1COc2ccc(N3CC(CCNCC4(O)Cc5cccc(Cl)c5C4)OC3=O)nc2N1 (stereo not shown) [Example 232, 6-[5-[2-[(4-Chloro-2-hydroxy-1,3-dihydroinden-2-yl)methylamino]ethyl]-2-oxo-1,3-oxazolidin-3-yl]-4H-pyrido[3,2-b][1,4]oxazin-3-one; formic acid]
320	Cc1nc(OC[C@@H]2CCN2)c(C)c2c1CC(CNCCC1CN(c3ccc4c(n3)NC(=O)CO4)C(=O)O1)C2 (stereo partly drawn) [Example 200, 6-[5-[2-[[3-[[(2S)-azetidin-2-yl]methoxy]-1,4-dimethyl-6,7-dihydro-5H-cyclopenta[c]pyridin-6-yl]methylamino]ethyl]-2-oxo-1,3-oxazolidin-3-yl]-4H-pyrido[3,2-b][1,4]oxazin-3-one]
105	NC(=O)COc1cc(F)c2c(c1)CC(CNCC[C@@H]1CN(c3cnc4c(n3)NC(=O)CO4)C(=O)O1)C2 (single isomer, unassigned; isomer a) [Example 381]
< 97.7	Cc1ncc(C#N)c2c1CC(CNCCC1CN(c3cnc4c(n3)NC(=O)CO4)C(=O)O1)C2 (stereo not shown) [Example 291, 1-methyl-6-[[2-[2-oxo-3-(3-oxo-4H-pyrazino[2,3-b][1,4]oxazin-6-yl)-1,3-oxazolidin-5-yl]ethylamino]methyl]-6,7-dihydro-5H-cyclopenta[c]pyridine-4-carbonitrile;2,2,2-trifluoroacetic acid]
< 97.7	CNC(=O)COc1cc(F)c2c(c1F)CC(CNCCC1CN(c3ccc4c(n3)NC(=O)CO4)C(=O)O1)C2 (stereo not shown) [Example 394, 2-[[4,7-difluoro-2-[[2-[2-oxo-3-(3-oxo-4H-pyrido[3,2-b][1,4]oxazin-6-yl)-1,3-oxazolidin-5-yl]ethylamino]methyl]-2,3-dihydro-1H-inden-5-yl]oxy]-N-methylacetamide]
253	CS(=O)(=O)NCCOc1ccc2c(c1C#N)CC(CNCCC1CN(c3ccc4c(n3)NC(=O)CO4)C(=O)O1)C2 (stereo not shown) [Example 59, N-[2-[[4-cyano-2-[[2-[2-oxo-3-(3-oxo-4H-pyrido[3,2-b][1,4]oxazin-6-yl)-1,3-oxazolidin-5-yl]ethylamino]methyl]-2,3-dihydro-1H-inden-5-yl]oxy]ethyl]methanesulfonamide]

Source: patent US20230167127A1, “COMPOUNDS AND THEIR USE IN THE TREATMENT OF BACTERIAL INFECTION” (Hoffmann-La Roche Inc., priority 2020, published 2023)
